Measured values published in patent US12595248B2, “PRMT5 inhibitors” (Merck Sharp & Dohme LLC, priority 2019, dated 2026).
Read-outs that look alike come from different tables or passages of the source.

Key:
[1] = biological target: T1, PRMT5 (Homo sapiens, UniProt O14744); test: PRMT5 Cell Target Engagement (TE) Assay; type: cell-based; details: MCF-7 cells, treated for 3 days, symmetric dimethylation of arginine (SDMA) by high content imaging
T1 construct: seeded with 4000 MCF-7 cells in 30 μl media; endogenous in cells; host or cells: MCF-7 cells
T1 sequence (O14744 whole entry): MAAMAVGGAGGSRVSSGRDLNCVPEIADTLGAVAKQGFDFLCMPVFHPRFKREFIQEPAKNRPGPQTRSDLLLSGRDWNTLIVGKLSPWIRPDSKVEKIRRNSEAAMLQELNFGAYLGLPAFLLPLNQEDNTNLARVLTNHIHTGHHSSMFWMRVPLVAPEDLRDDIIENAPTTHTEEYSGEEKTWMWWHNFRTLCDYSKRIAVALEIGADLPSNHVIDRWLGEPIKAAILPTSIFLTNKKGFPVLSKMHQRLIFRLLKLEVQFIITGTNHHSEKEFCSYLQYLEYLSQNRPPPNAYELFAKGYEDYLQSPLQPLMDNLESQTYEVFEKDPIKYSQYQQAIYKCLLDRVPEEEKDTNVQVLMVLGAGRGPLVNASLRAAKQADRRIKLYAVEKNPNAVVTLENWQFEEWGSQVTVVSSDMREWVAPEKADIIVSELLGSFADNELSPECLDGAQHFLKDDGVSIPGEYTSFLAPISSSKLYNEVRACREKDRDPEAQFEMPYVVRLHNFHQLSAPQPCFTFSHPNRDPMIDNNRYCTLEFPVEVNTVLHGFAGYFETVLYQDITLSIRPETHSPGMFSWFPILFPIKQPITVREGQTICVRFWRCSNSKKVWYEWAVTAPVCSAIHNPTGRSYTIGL
T1 sequence (Q9BQA1 whole entry partner): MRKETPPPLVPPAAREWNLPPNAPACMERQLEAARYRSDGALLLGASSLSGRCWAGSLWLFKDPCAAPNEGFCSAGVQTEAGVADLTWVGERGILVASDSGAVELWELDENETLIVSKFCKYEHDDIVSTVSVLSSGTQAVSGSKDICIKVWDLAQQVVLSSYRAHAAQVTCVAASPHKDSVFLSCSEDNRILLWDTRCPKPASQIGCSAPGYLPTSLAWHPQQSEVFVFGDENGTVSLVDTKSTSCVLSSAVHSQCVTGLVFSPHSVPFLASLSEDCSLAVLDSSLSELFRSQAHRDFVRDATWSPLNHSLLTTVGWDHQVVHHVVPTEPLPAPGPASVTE
Procedure, shortened: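 Readout is single-cell nuclear symmetric-dimethylarginine immunofluorescence (Alexa488), normalized to DMSO-treated cells. Compounds were applied to MCF-7 cells for 3 days at 37 °C, top concentration 10000 nM in 1:3 steps over ten points; curves fitted with 4-parameter robust fit.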

[2] = biological target: T2, PRMT5-MEP50 enzyme complex (Homo sapiens, UniProt O14744); test: PRMT5-MEP50 Enzyme Methylation Assay (Version A); type: biochemical
T2 construct: Full-length (FL)-PRMT5-MEP50 enzyme complex (recombinant proteins from baculovirus-transfected Sf21 cells: FL-PRMT5; MW=73837 kDa and FL-MEP50; MW=38614); made in house; host or cells: baculovirus-transfected Sf21 cells
T2 sequence (O14744 whole entry): as the sequence (O14744 whole entry) above
T2 sequence (Q9BQA1 whole entry partner): as the sequence (Q9BQA1 whole entry partner) above

[3] = first of two EC50s: 7 parameters biphasic model, read-out: Enzyme Methylation Assay Version A (EC50_1)
[4] = second of two EC50s: 7 parameters biphasic model, read-out: Enzyme Methylation Assay Version A (EC50_2)

EC50 [1] [nM] | EC50 [2, 3] [nM] | EC50 [2, 4] [nM] | Compound
69 | 1.1 | 1330 | O=C(c1ccc2c(O)c(CC(F)(F)F)cnc2c1)N1CC[C@H](N2CCc3ccccc3C2)[C@@H](O)C1 [Example 126, ((3S,4S)-4-(3,4-dihydroisoquinolin-2(1H)-yl)-3-hydroxypiperidin-1-yl)(4-hydroxy-3-(2,2,2-trifluoroethyl)quinolin-7-yl)methanone]
17 | 1.1 | 39 | O=C(c1cn2cc(Cl)cc(Br)c2n1)N1CC[C@H](N2CCc3ccccc3C2)[C@@H](O)C1 [Example 138, (8-bromo-6-chloroimidazo[1,2-a]pyridin-2-yl)[(3S,4S)-4-(3,4-dihydroisoquinolin-2(1H)-yl)-3-hydroxypiperidin-1-yl]methanone]
